Source: publication PMC5833389 (Oncogenesis, 2018)
Values joined by “and” are separate entries in the source; they are usually repeats but may differ in a detail not shown here. Identical values can stand only once.

How the values were obtained:
[1] = clinical trials NCT01905111 and NCT01335269; cited from earlier work
PC-3 cells = test: Proliferation assay, adherent monolayer, alamarBlue; format: cell-based, human; details: Homo sapiens, PC-3, adherent monolayers
Procedure: PC-3 cells were incubated with compounds for 5 days at 37 °C/5% CO2, stained with alamarBlue® and fluorescence was determined (544 nm/590 nm). Data were analyzed as described above.

PC-3 = test: Cancer cell line panel, 2D proliferation (Eurofins Panlabs); format: cell-based, human; details: PC-3, 2D culture, 72 h
Procedure: (§1) Drug sensitivity of a panel of human cancer cell lines was tested at Eurofins Panlabs (Bothell, WA, USA). Cells were treated for 72 h, fixed and stained with diaminophenylindole to visualize nuclei and the fluorescence intensity of each well was measured (GE Healthcare IN Cell Analyzer 1000). Relative cell proliferation in compound-treated cultures (signal as percent of control, “POC”) was calculated as follows: POC (t = 72 h) = 100 × fluorescence (compound wells) / fluorescence (control wells). In addition, for each compound-treated culture, the cell count after incubation for 72 h (POC [t = 72 h]) was related to the count at start of treatment (POC [t = 0 h]): POC [t = 0 h] = 100 × fluorescence at t = 0 [control wells]/fluorescence at t = 72 h [control wells]). To calculate concentration–response curves, POC data were analyzed using a four-parameter log-logistic function without upper or lower limitation.

[2] = test system: Calu-6 lung adenocarcinoma cells; test: as above; format: cell-based, human; details: Calu-6, 2D culture, 72 h
Procedure: as §1

[3] = test system: panel of 243 cancer cell lines; test: as above; format: cell-based, human; details: 2D culture
Procedure: as §1

[4] = Tolerability of daily oral dosing in nude mice; format: in vivo; details: daily oral doses of 50 mg/kg
Procedure: For efficacy studies, 1 × 10^7 MIA PaCa-2 or 1 × 10^6 BxPC-3 cells (with Matrigel® 50:50) were injected subcutaneously into the right flank of female BomTac:NMRI-Foxn1^nu mice (age 6 weeks, 24-30 g; Taconic, Denmark). […] Mice were randomized according to tumor volume when tumors had reached diameters of 6–8 mm. […] Natrosol-treated animals served as vehicle controls (n = 10). Tumor diameters were measured three times weekly using a caliper and volumes were calculated according to the formula “tumor volume = length × diameter^2 × π/6”. Mice were inspected daily for abnormalities and body weight was determined three times weekly. Animals were euthanized at the end of the study or prematurely, based on criteria including weight loss exceeding 20%, tumor necrosis or tumor volumes exceeding 1500 mm^3.

PAK7 = biological target: T1, PAK7 (Homo sapiens, UniProt Q9P286); test: PAK7 kinase assay, Z'-LYTE; format: biochemical
T1 construct: purchased Invitrogen/Life Technologies
Procedure: (§2) IC50 values on FAK and PYK2 were determined using the DELFIA® format, using kinase proteins obtained from Invitrogen (#PV3832, #PV4567) and biotinylated poly(Glu,Tyr) as substrate. Incubation in the presence of test compound was followed by detection of phosphorylated substrate using streptavidin-coated plates and Eu-N1 anti-phospho-Tyr PT66 antibody (#AD0040, VICTOR™ reader, both Perkin Elmer). Data were analyzed using GraphPad Prism. […] Data was fitted by iterative calculation using a sigmoidal curve analysis with variable Hill slope. In independent assays, IC50 values were determined using Z'-LYTE® technology, which is based on FRET (Invitrogen/Life Technologies). Selectivity was determined on the Invitrogen kinase panel at 1 µmol/L.

A549 lung xenograft = test: Subcutaneous xenograft efficacy; format: in vivo, mice
Procedure: (§3) For efficacy studies, 1 × 10^7 MIA PaCa-2 or 1 × 10^6 BxPC-3 cells (with Matrigel® 50:50) were injected subcutaneously into the right flank of female BomTac:NMRI-Foxn1^nu mice (age 6 weeks, 24-30 g; Taconic, Denmark). These two and the following tumor models were established from adherently grown cells which were either subcutaneously injected in PBS (LoVo, SW480, A-498, Calu-6, NCI-H2122, A549, SK-OV-3, TOV-21G, AsPC-1, PC-3) or were injected with Matrigel (HCC-461, A2780, PANC-1 and Hs 746 T). For the Caki-1 tumor model tumor fragments were passaged in mice. Mice were randomized according to tumor volume when tumors had reached diameters of 6–8 mm. […] Natrosol-treated animals served as vehicle controls (n = 10). Tumor diameters were measured three times weekly using a caliper and volumes were calculated according to the formula “tumor volume = length × diameter^2 × π/6”. Mice were inspected daily for abnormalities and body weight was determined three times weekly. Animals were euthanized at the end of the study or prematurely, based on criteria including weight loss exceeding 20%, tumor necrosis or tumor volumes exceeding 1500 mm^3.
(§4) Statistical evaluation was performed using SAS 8.2 (SAS Institute, Cary, NC, USA) and Proc StatXact (Cytel Software, Cambridge, MA, USA).
(§5) where Td and Cd denote the median of the tumor volume in the treatment group and the control group at day d, respectively. A one-sided increasing Wilcoxon test was applied to compare each experimental group with the vehicle control, the p values were adjusted for multiple comparisons according to Bonferroni–Holm. The level of significance was fixed at α = 5%. An adjusted p value of <0.05 was considered to show a significant difference between groups.

[5] = test system: MIA PaCa-2 pancreas adenocarcinoma xenograft; test: Subcutaneous xenograft efficacy; format: in vivo, mice
Procedure: as §3, §4, §5

[6] = test system: SW480 colon carcinoma xenograft; test: Subcutaneous xenograft efficacy; format: in vivo, mice
Procedure: as §3, §4, §5

A-498 kidney xenograft = test: Subcutaneous xenograft efficacy; format: in vivo, mice
Procedure: as §3, §4, §5

[7] = test system: AsPC-1 pancreas xenograft; test: Subcutaneous xenograft efficacy; format: in vivo, mice
Procedure: as §3, §4, §5

[8] = test system: NCI-H2122 lung carcinoma xenograft; test: Subcutaneous xenograft efficacy; format: in vivo, mice
Procedure: as §3, §4, §5

Calu-6 lung xenograft = test: Subcutaneous xenograft efficacy; format: in vivo, mice
Procedure: as §3, §4, §5

FER = biological target: T2, FER (Homo sapiens, UniProt P16591); test: FER kinase assay, Z'-LYTE; format: biochemical
T2 construct: purchased Invitrogen/Life Technologies
Procedure: as §2

NCI-H2110 lung xenograft = test: Subcutaneous xenograft efficacy; format: in vivo, mice
Procedure: as §4, §5

T1 sequence (Q9P286 whole entry): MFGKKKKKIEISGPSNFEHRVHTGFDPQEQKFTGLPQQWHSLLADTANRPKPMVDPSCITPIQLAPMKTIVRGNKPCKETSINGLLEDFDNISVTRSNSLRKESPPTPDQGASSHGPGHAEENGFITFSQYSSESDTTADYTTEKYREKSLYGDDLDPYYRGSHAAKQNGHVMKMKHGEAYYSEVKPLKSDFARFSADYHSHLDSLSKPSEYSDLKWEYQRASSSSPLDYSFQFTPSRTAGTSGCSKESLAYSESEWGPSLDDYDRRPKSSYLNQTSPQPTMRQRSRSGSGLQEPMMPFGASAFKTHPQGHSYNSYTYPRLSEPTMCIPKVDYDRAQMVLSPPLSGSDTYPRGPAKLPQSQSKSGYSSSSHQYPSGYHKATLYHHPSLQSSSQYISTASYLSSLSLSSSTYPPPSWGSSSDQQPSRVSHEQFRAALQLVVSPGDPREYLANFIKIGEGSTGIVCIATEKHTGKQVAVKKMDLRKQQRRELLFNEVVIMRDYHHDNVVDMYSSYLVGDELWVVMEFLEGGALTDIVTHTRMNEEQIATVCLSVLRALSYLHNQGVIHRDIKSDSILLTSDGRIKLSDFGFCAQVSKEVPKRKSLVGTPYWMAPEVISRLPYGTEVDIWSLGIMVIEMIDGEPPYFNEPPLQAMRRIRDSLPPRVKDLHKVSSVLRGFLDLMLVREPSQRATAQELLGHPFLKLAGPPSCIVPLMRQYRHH
T2 sequence (P16591 whole entry): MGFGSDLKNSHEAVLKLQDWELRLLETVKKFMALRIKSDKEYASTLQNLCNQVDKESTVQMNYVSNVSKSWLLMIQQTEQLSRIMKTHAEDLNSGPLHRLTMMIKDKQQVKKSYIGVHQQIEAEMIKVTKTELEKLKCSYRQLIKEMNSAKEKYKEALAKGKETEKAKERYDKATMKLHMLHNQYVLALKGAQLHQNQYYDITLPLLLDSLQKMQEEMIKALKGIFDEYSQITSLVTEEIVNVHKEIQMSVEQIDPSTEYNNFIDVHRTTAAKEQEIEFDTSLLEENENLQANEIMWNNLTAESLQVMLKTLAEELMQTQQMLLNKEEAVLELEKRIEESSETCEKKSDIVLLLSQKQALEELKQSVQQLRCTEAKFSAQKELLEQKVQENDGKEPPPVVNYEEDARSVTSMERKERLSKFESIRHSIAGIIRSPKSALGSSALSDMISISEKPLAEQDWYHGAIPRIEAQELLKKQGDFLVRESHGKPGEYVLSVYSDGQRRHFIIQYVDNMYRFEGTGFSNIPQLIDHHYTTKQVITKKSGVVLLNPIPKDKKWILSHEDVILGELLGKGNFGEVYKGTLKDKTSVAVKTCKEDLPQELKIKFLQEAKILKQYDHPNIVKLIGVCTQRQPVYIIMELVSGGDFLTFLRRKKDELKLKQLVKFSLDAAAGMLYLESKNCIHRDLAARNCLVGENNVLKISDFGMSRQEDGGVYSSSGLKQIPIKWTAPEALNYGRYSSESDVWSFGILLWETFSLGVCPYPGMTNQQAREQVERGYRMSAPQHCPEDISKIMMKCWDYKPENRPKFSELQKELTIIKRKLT

For `COc1cc(C(=O)NC2CCN(C)CC2)c(F)cc1Nc1ncc(C(F)(F)F)c(Oc2cccc3c2C(=O)N(C)C3)n1` [BI 853520], the “oral bioavailability in patients” value [1] is listed as “orally bioavailable”, the “safety profile in patients” value [1] is listed as “favorable safety profile” and the EC50 (PC-3 cells) is listed as over 3000 nM. For the same compound, the EC50 (PC-3; Homo sapiens) was 10 nM, the “maximal inhibition of proliferation” value (PC-3) was 20% and the “maximal inhibition of proliferation” value [2] was 40%. The EC50 ([2]; Homo sapiens) was 3 nM, the EC50 ([3]; Homo sapiens, few cell lines with interpretable sigmoid curves) was 3 to 30 nM and the “effect on proliferation, vast majority of cell lines” value ([3]; concentrations as high as 1 µmol/L) was “not affected”. The “maximal inhibition of proliferation” value ([3]; few cell lines with interpretable sigmoid curves) was 20–30%, the “tolerability (body weight gain, clinical signs)” value [4] was “well tolerated” and the IC50 (PAK7) was over 10000 nM. For the same compound, the “Median TGI” value (A549 lung xenograft; A549, 50 mg/kg once daily per os) was 15 (n.s.) % and 15%, the TGI (A549 lung xenograft; A549 xenograft, Supplement Table 3) was 15% and the TGI ([5]; MIA PaCa-2, 12.5 mg/kg, second independent study) was 89%. For the same compound, the partial regressions ([5]; MIA PaCa-2, 25 mg/kg once daily) was 5 out of 10 tumors, the TGI ([5]; MIA PaCa-2, 25 mg/kg once daily, first study) was 94% and the TGI ([5]; MIA PaCa-2, 25 mg/kg, second independent study) was 96%. For the same compound, the partial regressions ([5]; MIA PaCa-2, 50 mg/kg once daily) was 6 out of 10 tumors, the “Median TGI” value ([5]; MIA PaCa-2, 50 mg/kg once daily per os) was 104% and the TGI ([5]; MIA PaCa-2 xenograft, Supplement Table 3) was 104%. The “Median TGI” value ([6]; SW480, 50 mg/kg once daily per os) was 26 (n.s.) % and 26%, the TGI ([6]; SW480 xenograft, Supplement Table 3) was 26% and the “Median TGI” value (A-498 kidney xenograft; A-498, 50 mg/kg once daily per os) was 93%. For the same compound, the TGI (A-498 kidney xenograft; A-498 xenograft, Supplement Table 3) was 93%, the “Median TGI” value ([7]; AsPC-1, 50 mg/kg once daily per os) was 13 (n.s.) % and 13% and the TGI ([7]; AsPC-1 xenograft, Supplement Table 3) was 13%. The “Median TGI” value ([8]; NCI-H2122, 50 mg/kg once daily per os) was 45 (n.s.) % and 45%, the TGI ([8]; NCI-H2122 xenograft, Supplement Table 3) was 45% and the “Median TGI” value (Calu-6 lung xenograft; Calu-6, 50 mg/kg once daily per os) was 102%. For the same compound, the TGI (Calu-6 lung xenograft; Calu-6 xenograft, Supplement Table 3) was 102%, the IC50 (FER) was 903 nM and the Sensitivity (NCI-H2110 lung xenograft) was “moderately sensitive (“moderately sensitive” for statistically significant TGI values of 57–83%)”.
